Earlier results on one molecule are cited in patent publication US20250387447A1, “Herbal composition for use in the improvement of physical and mental health recovery and maintenance, including the improvement of cognitive function or prevention of cognitive decline” (Conka Elite Ltd, priority 2022, published 2025).

Each structure is given as a SMILES string.

The series deals with neurons.

Consider `COc1cc(/C=C/C(=O)CC(=O)/C=C/c2ccc(O)c(OC)c2)ccc1O` [curcumin], for which the “neuron death caused by oxygen-glucose deprivation” value was “protects neurons from death”. Besides, the expression of thioredoxin result (Nrf2 pathway) is reported as “activate the expression of thioredoxin”.
